# Assay results taken from publication PMC10377775, “Identification of a Novel ERK5 (MAPK7) Inhibitor, MHJ-627, and Verification of Its Potent Anticancer Efficacy in Cervical Cancer HeLa Cells” (Current Issues in Molecular Biology, 2023).
# Tests used:
# ERK5 (MAPK7) [1] = target: T1, ERK5 (MAPK7) (Homo sapiens, UniProt Q13164); test: FRET-based Z'-LYTE in vitro kinase assay, […] ng ERK5 (ab126913), […] ATP; type: biochemical
# ERK5 (MAPK7) [2] = target: T1, ERK5 (MAPK7); test: FRET-based Z'-LYTE in vitro kinase assay, single concentration ([…]), positive control; type: biochemical
# T1 sequence (Q13164 2-816): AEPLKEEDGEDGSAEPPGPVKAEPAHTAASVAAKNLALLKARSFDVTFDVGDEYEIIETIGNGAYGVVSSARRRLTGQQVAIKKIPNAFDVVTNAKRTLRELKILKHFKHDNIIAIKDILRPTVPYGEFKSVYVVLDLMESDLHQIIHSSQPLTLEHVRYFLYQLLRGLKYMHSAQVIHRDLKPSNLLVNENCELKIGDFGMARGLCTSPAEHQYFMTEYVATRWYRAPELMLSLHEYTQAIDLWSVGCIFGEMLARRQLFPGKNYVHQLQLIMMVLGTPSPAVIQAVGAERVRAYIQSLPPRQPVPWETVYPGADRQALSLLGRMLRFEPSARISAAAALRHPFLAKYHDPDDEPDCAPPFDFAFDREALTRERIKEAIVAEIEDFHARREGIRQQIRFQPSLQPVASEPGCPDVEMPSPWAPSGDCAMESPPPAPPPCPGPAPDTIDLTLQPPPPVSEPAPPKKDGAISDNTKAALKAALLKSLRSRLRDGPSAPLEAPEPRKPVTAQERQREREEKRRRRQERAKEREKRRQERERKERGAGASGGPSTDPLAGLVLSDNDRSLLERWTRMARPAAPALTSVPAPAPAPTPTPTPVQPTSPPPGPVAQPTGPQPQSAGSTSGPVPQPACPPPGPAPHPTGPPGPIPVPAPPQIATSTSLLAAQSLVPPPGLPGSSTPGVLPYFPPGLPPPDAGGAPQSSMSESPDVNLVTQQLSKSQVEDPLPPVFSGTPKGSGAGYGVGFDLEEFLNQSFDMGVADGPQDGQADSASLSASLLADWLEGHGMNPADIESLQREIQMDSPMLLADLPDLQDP
IC50 (ERK5 (MAPK7) [1]) [nM],Structure (SMILES),inhibition at 5 µM (ERK5 (MAPK7) [2]) [%]
910,"CC(C)CCOc1cc(C(=O)C[n+]2cn(CCC(C)C)c3ccccc32)c(OCCC(C)C)c2ccccc12 [MHJ-627, 3-(2-(1,4-bis(isopentyloxy)naphthalen-2-yl)-2-oxoethyl)-1-isopentyl-1H-benzo[d]imidazol-3-ium bromide]",
,CCOc1cc(N2CCC(O)CC2)ccc1Nc1ncc2c(n1)N(C)c1ccccc1C(=O)N2C [XMD8-92],56
